Literature values, collected in patent US8507698B2, “Artemisinin derivatives for the treatment of melanoma” (Lachifarma S.R.L. Laboratorio Chimico Farmaceutico Salentino, priority 2007, dated 2013).

Tested on: cell line of oral cancer (YD-10B)
Settings: read-out: CI50 (the source's name)

- IC50: 13.1 µM
SMILES: CC(=O)O[C@H]1C(=O)[C@@]2(C)[C@H]([C@H](OC(=O)c3ccccc3)[C@]3(O)C[C@H](OC(=O)[C@H](O)[C@@H](NC(=O)c4ccccc4)c4ccccc4)C(C)=C1C3(C)C)[C@]1(OC(C)=O)CO[C@@H]1C[C@@H]2O [paclitaxel]
